Test results published in a melting point compilation (Tetko et al.; mined from patent text by program, amines drawn as free bases though some values may be those of a salt).

Compound | melting point [°C]
CC(C)c1cc(C(C)C)c(CC(=O)NS(=O)(=O)Oc2c(C(C)C)cc(O)cc2C(C)C)c(C(C)C)c1 | 182 to 183
CN1CC2CCCCC2C1c1noc(=O)[nH]1 (stereo not given) | 102 to 104
Nc1ccc(OCCCCOc2ccc(N)cc2[N+](=O)[O-])c([N+](=O)[O-])c1 | 194 to 196
O=C(Oc1ccccc1)N1CCC(S(=O)(=O)c2ccccc2)C1 (stereo not given) | 84 to 85
Cc1c(N2CCC(C(N)c3cccnc3)C2)c(F)c(N)c2c(=O)c(C(=O)O)cn(C3CC3F)c12 (stereo not given) | 213 to 215
CC12CCC3C(CC=C4CCCCC43C)C1CC(F)C2=O (stereo not given) | 228 to 230
CCc1cc2[nH]c(=O)c(=O)[nH]c2c([N+](=O)[O-])c1Cl | > 330
COc1ccc(C(=O)O)nc1Oc1cccc(C(F)(F)F)c1 | 116 to 118
Cc1cc(C=C2CCCC(=Cc3cc(C)c(O)c(C)c3)C2=O)cc(C)c1O | 225 to 226
CCOc1ccc(S(=O)(=O)Cl)cc1OC | 72 to 73
CC(C)(C)OC(=O)N1CCC(=O)N(CCCC=O)CC1 | 86 to 87
CN1CC(N2CC(=O)NC2=O)CC2c3cccc4[nH]cc(c34)CC21 (stereo not given) | 295 to 297
CCCCCOC(=O)c1cc(NC(=O)C2=C(C)OCCS2)ccc1Cl | 65 to 68
CCCc1nc2c(N)ncc(Br)c2n1CCOCCN | 114 to 117
CC1CC(=O)Nc2nc(Br)c3ncccc3c21 (stereo not given) | 251 to 252
N#Cc1ccc2oc(Cc3cc4cc(C#N)ccc4o3)cc2c1 | 173 to 174
CC(C)(C)[Si](C)(C)OC(CCCO)COc1ccc2c(=O)cc(-c3ccccc3)oc2c1 (stereo not given) | 124 to 125
COc1c(Nc2ncc(Cl)c(Nc3ccccc3S(=O)(=O)N3CCC(O)C3)n2)ccc2c1CCCC(NCCO)C2 (stereo not given) | 90 to 92
Cc1nc(-n2ccc(O)cc2=O)sc1C(=O)NCCc1ccc(F)cc1 | 225 to 227
NS(=O)(=O)c1ccc2c(c1)C(=O)CCC2 | 197 to 198

Compound | melting point [°C]
COC(=O)c1ccc(N2C3CCC2CN(CC(=O)N2CC=C(c4cccc5ccsc45)CC2)C3)nc1 | 153 to 154
O=C(O)CC(CSc1nc2ccccc2s1)C(=O)O (stereo not given) | 136 to 139
O=C(NCc1ccccn1)Nc1cc(N2CC(Cc3ccccc3)CC2=O)ccn1 (stereo not given) | 215 to 220
COc1cc(C(=O)c2nccn2C)cc([N+](=O)[O-])c1OC | 144 to 145
Cc1ccc(C(=O)CBr)o1 | 60 to 63
CS(=O)(=O)c1ccc(-c2cc(C#N)c(=O)[nH]c2-c2ccc(F)cc2)cc1 | 294 to 296
CC(=O)SCCN(CCC1CCCCC1)C(=O)N[C@@H](C)C(=O)O | 89.5 to 90.5
O=C1NC=N[C@H]2CCCC[C@@H]12 (relative stereo) | 133 to 134
CC12CCC(=O)C=C1CCC1C2C(F)CC2(C)C(O)CCC12 (stereo not given) | 161 to 162
Cc1nn(-c2c(Cl)cc(C(F)(F)F)cc2Cl)nc1CN(C)C | 67 to 68
Cc1sc(-c2ccccc2)nc1COc1ccc(CO)cn1 | 70 to 71
O=c1c2ccccc2nnn1OS(=O)(=O)c1ccccc1 | 132 to 134
N#Cc1ccc(C=Cc2ccc(-c3ccccc3)cc2)cc1 | 235 to 254
OC(Cn1cnnc1)(Cn1cncn1)Cn1cncn1 | 220
COc1ccccc1Sc1ccc2c(c1)CCC1N(C)C(=O)CCC21C (single isomer, unassigned; (+)) | 166 to 168
CC(C)(C)NC(=O)C1CC(Cl)CN1C(=O)C(O)C(Cc1ccccc1)NC(=O)C(CC(N)=O)NC(=O)C(COC1CCCO1)NC(=O)OCc1ccccc1 (stereo not given) | 64 to 71
O=C(Nc1ccc(F)cc1)N1CC=CCN1 | 100 to 101
O=C(NC1CSc2ccccc2NC1=O)OCc1ccccc1 (stereo not given) | 149 to 151
Nc1cnc2ccc(-c3ccccc3)cc2c1Nc1ccccc1Br | 174 to 177
CC(C)(C)OC(=O)NNCc1ccc(-c2ccccc2)cc1 | 84 to 85
